In patent publication US9284307B2, “Macrocyclic serine protease inhibitors” (Idenix Pharmaceuticals LLC, priority 2009, dated 2016) one finds IC50, inhibition and EC50 data, which are given here for 2 molecules.

For one data set, the target named is T1, CYP2C19 (Homo sapiens, UniProt P33261).
T1 construct: purchased BD Bioscience
Nature of the data set: In vitro CYP450 inhibition screen, luminogenic assay, CYP2C19. The format is in vitro ADME. As to conditions: probe substrate Luciferin-H EGE, average of two independent experiments, read-out: IC50 (μM) or % Inhibition at 20 μM, CYP450 2C19. The procedure:
(§1) CYP2C8, 2C9, 2C19 and 2D6 (BD Bioscience) inhibition luminogenic assay was performed as per the protocol provided by Promega (P450-Glo™ Assay Technical Bulletin #TB325, P450-Glo™ Screening Systems Technical Bulletin #TB340). Test articles were prepared as 10 mM stock solutions in DMSO.
(§2) Data represent the average of two independent experiments. A represents inhibition of 5 to 10%. B represents inhibition of >10% to 20%. C represents inhibition of >20% to 30%. D represents inhibition of >30% to 40%. I represents an IC50 of 5 to 9 μM.

The target of another data set is T2, CYP2D6 (Homo sapiens, UniProt P10635).
T2 construct: purchased BD Bioscience
Nature of the data set: In vitro CYP450 inhibition screen, luminogenic assay, CYP2D6. To be noted: CYP2D6 enzyme (BD Bioscience), probe substrate Luciferin-ME EGE, average of two independent experiments, read-out: IC50 (μM) or % Inhibition at 20 μM, CYP450 2D6. The format is in vitro ADME. The method, then:
as §1, §2

Data set [1] concerns HCV genotype 1b Con1 strain subgenomic luciferase replicon (Zluc) in Huh-7 cells. Nature of the data set: Luciferase replicon assay, genotype 1b (Zluc). The data set is classed as cell-based. To be noted: Hepatitis C virus, genotype 1b Con1 luciferase replicon (Zluc), 72 hours, read-out: EC50 Against Relpicon 1b. The procedure:
The HCV luciferase replicon assay measures the ability of a test compound to inhibit HCV replication in cell culture after 3 days of treatment in a human hepatoma cell line (Huh-7) bearing a HCV replicon containing a luciferase-neomycin phosphotransferase fusion gene. The inhibition of HCV replication was measured by quantification of luciferase protein expression. Briefly, Huh-7 cells containing either the HCV genotype 1a H77 strain or genotype 1b Con1 strain subgenomic luciferase replicon (H1a-luc or Zluc, respectively) were grown in DMEM containing glucose, L-glutamine and sodium pyruvate, 10% fetal bovine serum (FBS), 100 IU/mL penicillin, 100 μg/mL streptomycin, 2 mM GlutaMAX, non-essential amino acids and 0.25 (H1a-luc) or 0.5 (Zluc) mg/mL G418. GlutaMAX was obtained from Invitrogen. Corp.; all other media reagents were obtained from Mediatech, Inc. For dose-response testing, the cells were seeded in 96-well plates at 1×10^4 (H1a-luc) or 7.5×10^3 (Zluc) cells/well in a volume of 50 μL, and incubated at 37° C./5% CO2. […] The assay plates were shaken for 3 minutes at room temperature and luciferase activity for each well was measured with a 1 sec read time on the Victor^3V multilabel counter using a 700 nm cut-off filter (Perkin Elmer). EC50 values were calculated from dose response curves from the resulting best-fit equations determined by Microsoft Excel and XLfit 4.1 software.

Data set [2] deals with JFH-1 HCV virus (genotype 2a). Nature of the data set: Genotype 2a infectious virus assay (JFH-1, HCV core ELISA in HPC cells). The format is cell-based. To be noted: Hepatitis C virus, 120 h, 5 days. The method, then:
The genotype 2a infectious virus assay measures the ability of a test compound to inhibit HCV replication in cell culture after 5 days of treatment at the time of HCV genotype 2a virus infection of a permissive human hepatoma cell line (HPC cells). The inhibition of HCV replication was measured by quantification of HCV core protein expression by an enzyme-linked immunosorbent assay (ELISA). Briefly, HPC cells were grown in DMEM containing glucose, L-glutamine and sodium pyruvate, 10% FBS, 100 IU/mL penicillin, 100 μg/mL streptomycin, 2 mM GlutaMAX, and non-essential amino acids. GlutaMAX was obtained from Invitrogen, Corp.; all other media reagents were obtained from Mediatech, Inc. For dose-response testing, ninety-six-well plates were seeded with HPC cells at a density of 2.5×10^3 cells/well in a volume of 50 μL, and incubated at 37° C./5% CO2. Three hours after plating, 50 μL of ten 5-fold serial dilutions of compound and 100 μL of genotype 2a virus were added, and cell cultures were incubated at 37° C./5% CO2. […]
The HCV in vitro infection core ELISA assay measures the ability of a test compound to inhibit replication of an infectious HCV (strain JFH-1; genotype 2a) in cell culture. […] The readout of the assay is quantification of HCV core protein by ELISA 5 days post infection with JFH-1 virus and treatment with a test compound. […]
(In an ELISA, binding on a coated surface is turned into a signal by an enzyme label.)

T1 sequence (P33261 whole entry): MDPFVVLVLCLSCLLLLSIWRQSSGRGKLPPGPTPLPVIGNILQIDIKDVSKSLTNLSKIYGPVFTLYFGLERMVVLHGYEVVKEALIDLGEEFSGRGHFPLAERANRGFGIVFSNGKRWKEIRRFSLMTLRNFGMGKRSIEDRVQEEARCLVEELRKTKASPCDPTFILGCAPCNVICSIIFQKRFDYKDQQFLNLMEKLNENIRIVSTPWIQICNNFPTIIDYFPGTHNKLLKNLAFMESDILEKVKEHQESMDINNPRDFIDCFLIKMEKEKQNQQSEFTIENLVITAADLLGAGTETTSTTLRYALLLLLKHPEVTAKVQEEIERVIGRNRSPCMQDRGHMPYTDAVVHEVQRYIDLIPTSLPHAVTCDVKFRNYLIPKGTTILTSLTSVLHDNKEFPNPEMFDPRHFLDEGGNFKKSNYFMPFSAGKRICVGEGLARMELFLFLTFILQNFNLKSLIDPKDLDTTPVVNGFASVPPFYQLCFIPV
T2 sequence (P10635 whole entry): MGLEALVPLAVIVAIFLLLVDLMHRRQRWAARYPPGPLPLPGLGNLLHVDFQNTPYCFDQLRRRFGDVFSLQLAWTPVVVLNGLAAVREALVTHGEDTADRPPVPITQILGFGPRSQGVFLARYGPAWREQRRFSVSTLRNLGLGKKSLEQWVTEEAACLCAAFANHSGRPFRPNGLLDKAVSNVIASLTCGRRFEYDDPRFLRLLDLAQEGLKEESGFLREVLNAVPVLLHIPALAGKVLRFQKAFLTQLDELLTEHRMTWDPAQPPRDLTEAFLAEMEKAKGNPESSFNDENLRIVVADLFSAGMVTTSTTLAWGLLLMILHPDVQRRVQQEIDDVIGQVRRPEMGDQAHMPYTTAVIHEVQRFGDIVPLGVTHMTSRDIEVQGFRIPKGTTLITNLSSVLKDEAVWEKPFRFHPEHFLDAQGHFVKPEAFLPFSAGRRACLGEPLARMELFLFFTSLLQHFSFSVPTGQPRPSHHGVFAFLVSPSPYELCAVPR

On to `COc1ccc2c(O[C@H]3CC[C@H]4C(=O)N(C)CCCC/C=C\[C@@H]5C[C@@]5(C(=O)NS(=O)(=O)C5(C)CC5)NC(=O)[C@@H]4C3)cc(-c3nc(C(F)(F)F)cs3)nc2c1C` [Compound 51], for which the IC50 on CYP2C19 was 9 to 15 µM. Also, the inhibition at 20 µM on CYP2D6 lay in the range of 20 to 30%. In addition, the EC50 in data set [1] and in data set [2] was below 1 µM each time.

Take `C#Cc1csc(-c2cc(O[C@H]3CC[C@H]4C(=O)N(C)CCCC/C=C\[C@@H]5C[C@@]5(C(=O)NS(=O)(=O)C5(C)CC5)NC(=O)[C@@H]4C3)c3ccc(OC)c(C)c3n2)n1` [Compound 52, (1aR,3aR,5S,7aR,15aS,Z)-5-(2-(4-ethynylthiazol-2-yl)-7-methoxy-8-methylquinolin-4-yloxy)-9-methyl-N-(1-methylcyclopropylsulfonyl)-3,8-dioxo-1a,2,3,3a,4,5,6,7,7a,8,9,10,11,12,13,15a-hexadecahydro-1H-benzo[c]cyclopropa[g][1,6]diazacyclotetradecine-1a-carboxamide]: on CYP2C19, the concentration for half-maximal inhibition (IC50) was 9 to 15 µM. The inhibition at 20 µM on CYP2D6 lay in the range of 5 to 10%. For the same molecule, the EC50 in data set [1] and in data set [2] was below 1 µM in each case.

As usually defined, the IC50 is the midpoint of a concentration-inhibition curve. For orientation: inhibition means the share of the control response that was lost under treatment. A word on the EC50: it is the concentration at which the effect is half-maximal.
